The test system of one series is cleaved caspase-3. As to the kind of experiment: Cleaved caspase-3 (apoptosis), HCT116 control and p53 KO cells. It counts as cell-based, human. The text has this:
The upregulation of p53 and its effector p21 can arrest cell growth or induce cell death through apoptosis. […] Next, we addressed whether cell death was mediated by an apoptotic pathway by assaying for cleaved caspase-3, a bona fide marker of apoptosis.

For another series, the system named is p53 and p21. As to the kind of experiment: p53 and p21 protein levels in HCT116 cells. In kind it is cell-based, human. An excerpt: Inhibition of 60S ribosome biogenesis is known to induce the stability and upregulation of p53, which could serve as a potential pharmacodynamics marker for MM017 in HCT116 cells. […] We used PRISM (Broad Institute) to evaluate the selectivity of MM017 across 902 cancer cell lines and then correlated this selectivity to 1,215 clinical and pre-clinical compounds in the PRISM database. […] These observations indicate that oxaliplatin and carmofur, like MM017, target ribosome biogenesis.

Series [1] has as its system HCT116 control and p53 KO cells. As to the kind of experiment: Cell death by loss in membrane permeability, HCT116 control and p53 KO cells. It counts as cell-based, human. To be noted: five-day treatment.
The test system of another series is HCT116 NVL^WT tumors. In words: Efficacy study: HCT116 NVL wild type xenografts. In kind it is in vivo, mouse. To be noted: 35 mg/kg IP twice a day for 21 days. The procedure: (§1) Having established the kinetics of MM927 mediated NVL inhibition in xenograft tumors, we administered 35 mg/kg MM927 IP twice a day for 21 days to mice harboring tumors derived from either HCT116 NVL wild type or NVL^R403W cells. […] Taken together, we concluded that the potent, and bioavailable analog MM927 reduces tumor growth in mouse xenografts by inhibiting NVL without toxicity.
(§2) Efficacy study: Five million parental HCT116 cells or HCT116 NVL^R403W in a volume of 0.1 mL were implanted in the right flank. Tumor volumes were measured every 2 to 4 days with calipers. Volume is calculated as [(L*W^2)*3.14]/6. When volumes reached ˜110 mm^3, treatment was started with 35 mg/kg MM927 or vehicle control (0.2 mL/mouse) twice a day for 21 days. Mice were euthanized at the end of the 21-day treatment period or when any tumor reached 2 cm in its largest diameter, in agreement with the approved animal protocol. At the end of treatment, blood and tumor tissue were collected for pharmacokinetic analysis, measurement of complete blood counts, and blood chemistry measurements as described. Serum alanine transaminase and blood urea nitrogen were analyzed using VITROS MicroSlide technology.

A short description of series [2]: Drug levels in plasma and tumor at end of efficacy study (NSG mice). To be noted: 3 hours after the last treatment dose, 35 mg/kg IP twice a day for 21 days. It counts as in vivo, mouse. How it is done: as §1
Pharmacokinetic studies were performed by dosing 6-7 week old CD-1 female mice with analog MM927 formulated as 10% DMSO/10% Kolliphor EL/10% Solutal/70% D5W via the intraperitoneal route. […] The resulting supernatants were evaluated by LC-MS/MS using a Sciex (Framingham, MA) 4500 Triple Quad coupled to a Shimadzu (Columbia, MD) Prominence LC. Briefly, MM927 was detected in multiple reaction monitoring mode (MRM) using the (m+1) transition 488.059/176.1. […] The concentrations of drug in each time-point sample were quantified using Analyst software (Sciex). […] The limit of quantitation (LOQ) was defined as the lowest concentration at which back calculation yielded a concentration within 20% of theoretical and which was above the LOD. Cmax and AUC values were calculated using the noncompartmental analysis tool of Phoenix WinNonLin (Certara/Pharsight, Sunnyvale, CA). […]

A further series relates to HCT116 NVL^R403W tumors. As to the kind of experiment: Efficacy study: HCT116 NVL^R403W xenografts. It counts as in vivo, mouse. Particulars: 35 mg/kg IP twice a day for 21 days. How it is done:
as §1, §2

A short description of series [3]: Pharmacokinetic studies in CD-1 female mice, intraperitoneal. In kind it is in vivo, mouse. How it is done: Plasma exposure was dose-dependent up to 35 mg/kg (IP injection) reaching a maximum concentration at 17.86 μM. These levels exceed the anti-proliferative IC99 of MM927 in cells expressing either human or mouse NVL. In a subsequent pharmacodynamic (PD) study, we asked if we could assess on-target NVL inhibition via a subsequent p53 and/or p21 induction in tumor xenografts in mice treated with MM927. We implanted HCT116 NVL^WT and NVL^R403W cells subcutaneously on either flank of the mice and evaluated the levels of p53 and p21 in either tumor at various time points after IP administration of 35 mg/kg of MM927.
Pharmacokinetic studies were performed by dosing 6-7 week old CD-1 female mice with analog MM927 formulated as 10% DMSO/10% Kolliphor EL/10% Solutal/70% D5W via the intraperitoneal route. Animals were euthanized in groups of three, blood was obtained by cheek bleeds at each time point (0, 10, 30, 90, 180, 360, 960 and 1440 minutes post dose) using the anticoagulant ACD (acidified citrate dextrose) and plasma isolated by centrifugation. For the dose escalation study, mice were dosed with 20 mg/kg, 35 mg/kg, or 60 mg/kg and blood was collected at 10, 180, and 720 minutes post dose. […] The resulting supernatants were evaluated by LC-MS/MS using a Sciex (Framingham, MA) 4500 Triple Quad coupled to a Shimadzu (Columbia, MD) Prominence LC. Briefly, MM927 was detected in multiple reaction monitoring mode (MRM) using the (m+1) transition 488.059/176.1. […] The concentrations of drug in each time-point sample were quantified using Analyst software (Sciex). […] The limit of quantitation (LOQ) was defined as the lowest concentration at which back calculation yielded a concentration within 20% of theoretical and which was above the LOD. Cmax and AUC values were calculated using the noncompartmental analysis tool of Phoenix WinNonLin (Certara/Pharsight, Sunnyvale, CA).

Several values for one entry are separate records, joined by “and”; a condition that tells them apart may be missing. Equal entries are not always repeated. Entries after “also recorded” stand apart in the source; their conditions may differ.

Turning to `COCCN1C(=O)c2ccccc2Sc2cc(NC(=O)c3ccoc3)ccc21` [MM017], in the series with cleaved caspase-3, the “cleaved caspase-3” value was “substantially reduced in p53 KO cells”. Besides, the “p53 levels in parental HCT116 cells” value with p53 and p21 is given as “upregulates p53 levels; also recorded: increase in p53 at 6 hours post treatment; also recorded: dose-dependent increase in the levels of p53”. Further, the “p53 and p21 abundance in NVL^P307T cells” value in the series on p53 and p21 (NVL^P307T) is “no changes in the abundance of either protein”. In addition, the “cell death in p53 KO versus control cells” value in series [1] is given as “substantially lower in p53 KO cells”.

Usually half-life stands for how long it takes for the measured level to halve. As a reminder, the Cmax is the highest concentration seen after dosing. With `CC#CCN1C(=O)c2ccc(F)cc2Sc2cc(NC(=O)c3ccc4oc(=O)n(C)c4c3)ccc21` [MM927, N-(10-(But-2-yn-1-yl)-3-fluoro-11-oxo-10,11-dihydrodibenzo[b,f][1,4]thiazepin-7-yl)-3-methyl-2-oxo-2,3-dihydrobenzo[d]oxazole-5-carboxamide], in the series with HCT116 NVL^WT tumors, the “endpoint tumor burden, NVL WT” value was “significantly reduced NVL WT tumor burden” and the “rate of growth of NVL^WT tumors” value is recorded as “significantly reduced the rate of growth”. For the same compound, the “level in plasma and tumor” value in series [2] is recorded as “micromolar levels”. In the series on HCT116 NVL^R403W tumors, the “endpoint tumor burden, NVL^R403W” value is “no effect” and the “rate of growth of NVL^R403W tumors” value is listed as “no significant impact”. Further, the maximum plasma concentration in series [3] (35 mg/kg IP injection, dose escalation) is 17.86 µM. Also, in series [3] (female, CD-1, mouse, plasma, 10 mg/kg intraperitoneal (IP) injection, read-out: elimination half-life), the half-life is 1.69 h. Besides, in series [3] (female, CD-1, mouse, plasma, 10 mg/kg intraperitoneal (IP) injection, read-out: peak plasma levels (Cmax)), the Cmax was 2510 ng/mL and 5.15 µM.
